# Read-outs that look alike come from different tables or passages of the source.
# Tests used:
# Test in all cases: Synergistic Growth Inhibition Assay (MIC and FIC index, 96-well, resazurin)
# Format in all cases: cell-based
# [1] = system: Fusarium oxysporum; conditions: Fusarium oxysporum, Compound B alone
# Summary of the method: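 Checkerboard dilutions of pesticidal active plus C6–C10 (or C11/C12) aliphatic acid in 96-well plates; growth scored by resazurin colour change, optionally visual.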
# [2] = system: Botrytis cinerea; conditions: Botrytis cinerea, 48 h, Compound B alone
# Summary of the method: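 Checkerboard microdilution of pesticidal active ingredient combined with C6–C10 (or C11/C12) aliphatic acid against Botrytis cinerea, with growth read by resazurin colour change plus visual check. FIC index = sum of each agent's concentration in the inhibiting well divided by its MIC alone; 1 denotes additivity.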
# [3] = system: Sclerotinia sclerotiorum; conditions: Sclerotinia sclerotiorum, […], Compound B alone
# Summary of the method: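 Checkerboard of pesticidal active ingredient combined with C6–C10 (or C11/C12) aliphatic acids in serial dilutions against Sclerotinia sclerotiorum. Growth scored by resazurin colour change plus visual inspection; FIC index is the sum of each agent's concentration divided by its MIC alone, with 1 indicating additivity.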
# [4] = system: Alternaria solani; conditions: Alternaria solani, […], read-out: MIC (B)
# Method: In some embodiments, the synergistic action between the pesticidal active ingredient, and the at least one C6-C10 (or alternatively C11 or C12) saturated or unsaturated aliphatic acid components of the pesticidal compositions according to embodiments of the present disclosure was tested using a Synergistic Growth Inhibition Assay, which is derived from and related to a checkerboard assay as is known in the art for testing of combinations of antimicrobial agents. In the Synergistic Growth Inhibition Assay used in accordance with some embodiments of the present disclosure, multiple dilutions of combinations of pesticidal active ingredient and at least one C6-C10 saturated or unsaturated aliphatic acid agents are tested in individual cells for inhibitory activity against a target pest or pathogenic organism. In one such embodiment, the combinations of pesticidal active ingredient and C6-C10 (or alternatively C11 or C12) saturated or unsaturated aliphatic acid agents may preferably be tested in decreasing concentrations. In a further such embodiment, the combinations of pesticidal active ingredient and C6-C10 (or alternatively C11 or C12) saturated or unsaturated aliphatic acid agents may be tested in increasing concentrations. These multiple combinations of the pesticidal active ingredient and at least one C6-C10 (or alternatively C11 or C12) saturated or unsaturated aliphatic acid agents may be prepared in 96-well microtiter plates. In one such embodiment, the Synergistic Growth Inhibition Assay then comprises rows which each contain progressively decreasing concentrations of the pesticidal active ingredient and one or more C6-C10 (or alternatively C11 or C12) saturated or unsaturated aliphatic acid agents to test for the MIC of the agents in combination at which growth of the target pest or pathogen is inhibited. Thus, each well of the microtiter plate is a unique combination of the two agents, at which inhibitory efficacy of the combination against the target pest or pathogen can be determined.
# In one embodiment according to the present disclosure, for each row of microtiter cells in the Synergistic Growth Inhibition Assay, the FIC index is calculated from the lowest concentration of the pesticidal active ingredient and one or more C6-C10 saturated or unsaturated aliphatic acid agents necessary to inhibit growth of a target pest or pathogen. The FIC of each component is derived by dividing the concentration of the agent present in that well of the microtiter plate by the minimal inhibitory concentration (MIC) needed of that agent alone to inhibit growth of the target pest or pathogen. The FIC index is then the sum of these values for both agents in that well of the microtiter plate. […] Fractional inhibitory concentration indices may then used as measure of synergy. […] When the FIC index is equal to 1, the combination is additive.
# Then, serial dilutions of these initial compositions in successive wells in the row of the microtiter plate were used to assay the pesticidal composition under the same conditions to determine the concentration of the composition combining the two agents corresponding to the microtiter well in which growth inhibition of the target pest or organism ceases.
# A culture of the representative fungal pathogen, namely Fusarium oxysporum, Botrytis cinerea, or Sclerotinia sclerotiorum, for example, is grown to exponential phase in potato dextrose broth (PDB).
# [5] = 48 h, Table 28, 48 hours incubation, read-out: MIC (B)
# [6] = 48 h, Table 30, 48 hours incubation, read-out: MIC (B)
# [7] = 48 h, Table 32, 48 hours incubation, read-out: MIC (B)
# [8] = Table 43, 48 hours incubation, read-out: MIC (B)
# [9] = Table 44, 48 hours incubation, read-out: MIC (B)
# [10] = Table 45, 48 hours incubation, read-out: MIC (B)
# [11] = Table 47, 48 hours incubation, read-out: MIC (B)
# [12] = Table 49, 48 hours incubation, read-out: MIC (B)
# [13] = Table 56, 48 hours incubation, read-out: MIC (B)
# [14] = 7 days incubation, read-out: MIC (B)
# [15] = Table 33, 7 days incubation, read-out: MIC (B)
# [16] = Table 36, 7 days incubation, read-out: MIC (B)
# [17] = Table 37, 7 days incubation, read-out: MIC (B)
# [18] = Table 38, 7 days incubation, read-out: MIC (B)
# [19] = Table 39, 7 days incubation, read-out: MIC (B)
# [20] = Table 40, 7 days incubation, read-out: MIC (B)
# [21] = Table 41, 7 days incubation, read-out: MIC (B)
# [22] = Compound B alone, 7 days incubation
# [23] = Table 60, Compound B alone, 7 days incubation
# [24] = Table 48, 48 hours incubation, read-out: MIC (B)
# [25] = Table 50, 48 hours incubation, read-out: MIC (B)
# [26] = Table 58, 48 hours incubation, read-out: MIC (B)
# [27] = Table 54, 48 hours incubation, read-out: MIC (B)
# [28] = Table 35, 7 days incubation, read-out: MIC (B)
# [29] = 48 h, Table 15B, incubation 48 hours, read-out: MIC (B)
# [30] = Table 51, 48 hours incubation, read-out: MIC (B)
# [31] = Table 59, 48 hours incubation, read-out: MIC (B)
# [32] = Table 16, incubation 7 days, read-out: MIC (B)
# [33] = Table 20B, incubation 7 days, read-out: MIC (B)
# [34] = 48 h, Table 27, 48 hours incubation, read-out: MIC (B)
Compound,"MIC [1, 6] [µg/mL]","MIC [1, 7] [µg/mL]","MIC [2, 8] [µg/mL]","MIC [2, 9] [µg/mL]","MIC [2, 10] [µg/mL]","MIC [2, 11] [µg/mL]","MIC [2, 12] [µg/mL]","MIC [2, 13] [µg/mL]","MIC [3, 14] [µg/mL]","MIC [3, 15] [µg/mL]","MIC [3, 17] [µg/mL]","MIC [3, 18] [µg/mL]","MIC [3, 19] [µg/mL]","MIC [3, 21] [µg/mL]","MIC [4, 22] [µg/mL]","MIC [4, 23] [µg/mL]","MIC [2, 25] [µg/mL]","MIC [2, 26] [µg/mL]","MIC [3, 28] [µg/mL]","MIC [2, 30] [µg/mL]",other results
CCCCCC/C=C/C(=O)O [Trans-2-nonenoic acid],312,312,78.1,39.1,39.1,78.1,156,156,78.1,19.5,78.1,39.1,19.5,39.1,156,78.1,–,–,–,–,"MIC [1, 5]: 156 µg/mL; MIC ([2]; Table 46, 48 hours incubation, read-out: MIC (B)): 19.5 µg/mL; MIC [3, 16]: 39.1 µg/mL; MIC [3, 20]: 19.5 µg/mL"
"CCCC(O)CC(=O)O (centres unmarked) [3-Hydroxyhexanoic acid, 3-hydroxyhexanoic acid]",–,–,–,–,–,–,–,5000,–,–,–,–,–,–,2500,–,–,–,–,2500,"MIC [1, 29]: 2500 µg/mL; MIC [2, 31]: 2500 µg/mL; MIC [3, 32]: 5000 µg/mL; MIC [3, 33]: 2500 µg/mL"
"C/C=C/C=C/C(=O)O [(2E,4E)-2,4-hexadienoic acid]",–,–,62.5,62.5,–,–,–,125,–,125,–,–,–,–,–,125,–,250,–,–,"MIC ([1]; 24 h, Table 1, 24 hour incubation, read-out: MIC(B)): 125 µg/mL; MIC ([1]; 24 h, Table 2, 24 hour incubation, read-out: MIC (B)): 125 µg/mL; MIC [1, 34]: 25 µg/mL"
CCCC=CCC(=O)O [3-Heptenoic acid],156,–,78.1,78.1,–,78.1,78.1,–,156,78.1,–,–,78.1,78.1,–,312,–,–,78.1,–,"MIC [1, 34]: 156 µg/mL; MIC [1, 5]: 156 µg/mL; MIC ([1]; 48 h, Table 29, 48 hours incubation, read-out: MIC (B)): 156 µg/mL; MIC ([1]; 48 h, Table 31, 48 hours incubation, read-out: MIC (B)): 156 µg/mL"
C=CCCCC(=O)O [5-Hexenoic acid],–,–,156,78.1,312,–,–,–,–,156,–,–,–,–,–,312,156,–,156,–,"MIC [1, 34]: 312 µg/mL; MIC [2, 27]: 312 µg/mL"
"CCCCCC(=O)O [Hexanoic acid, hexanoic acid]",–,–,–,–,–,–,–,–,–,–,–,–,–,–,–,–,–,–,–,–,"MIC ([1]; 24 h, read-out: MIC(B), Table 7, 24 hour incubation): 145 µg/mL; MIC ([1]; read-out: MIC (B), Table 8): 290 µg/mL; MIC ([2]; read-out: MIC (B), Table 21, incubation 48 hours): 78.1 µg/mL; MIC ([2]; read-out: MIC (B), Table 22, incubation 48 hours): 78.1 µg/mL; MIC ([2]; read-out: MIC (B), Table 25, 48 hours incubation): 78.1 µg/mL; MIC ([3]; read-out: MIC (B), Table 16, incubation 7 days): 39.1 µg/mL; MIC ([3]; read-out: MIC (B), Table 17, incubation 7 days): 39.1 µg/mL; MIC ([3]; read-out: MIC (B), Table 19, incubation 7 days): 78.1 µg/mL; MIC [4]: 156 µg/mL"

# More lines, main results first:
"MIC [1, 6] [µg/mL]","MIC [1, 7] [µg/mL]","MIC [2, 8] [µg/mL]","MIC [2, 9] [µg/mL]","MIC [2, 10] [µg/mL]","MIC [2, 11] [µg/mL]","MIC [2, 12] [µg/mL]","MIC [2, 13] [µg/mL]","MIC [3, 14] [µg/mL]","MIC [3, 15] [µg/mL]","MIC [3, 17] [µg/mL]","MIC [3, 18] [µg/mL]","MIC [3, 19] [µg/mL]","MIC [3, 21] [µg/mL]","MIC [4, 22] [µg/mL]","MIC [4, 23] [µg/mL]","MIC [2, 25] [µg/mL]","MIC [2, 26] [µg/mL]","MIC [3, 28] [µg/mL]","MIC [2, 30] [µg/mL]",Compound,other results
–,156,156,78.1,78.1,78.1,78.1,39.1,–,19.5,–,39.1,39.1,39.1,–,156,39.1,156,–,–,CCCCCCCC/C=C/C(=O)O [Trans-2-undecenoic acid],"MIC [2, 24]: 78.1 µg/mL"
–,156,78.1,78.1,78.1,78.1,78.1,–,78.1,19.5,78.1,78.1,–,39.1,–,78.1,–,–,39.1,–,CCCCCC=CCC(=O)O [3-Nonenoic acid],"MIC [2, 24]: 78.1 µg/mL; MIC [2, 27]: 78.1 µg/mL; MIC [3, 16]: 39.1 µg/mL"
–,–,–,–,–,–,–,10000,–,–,–,–,–,–,5000,–,–,–,–,10000,"CC(O)CC(=O)O (centres unmarked) [3-Hydroxybutyric acid, 3-hydroxybutyric acid]","MIC ([1]; 48 h, Table 10, incubation 48 hours, read-out: MIC (B)): 10000 µg/mL; MIC [1, 29]: 10000 µg/mL; MIC [2, 31]: 5000 µg/mL; MIC [3, 32]: 10000 µg/mL; MIC [3, 33]: 5000 µg/mL"
78.1,156,19.5,78.1,39.1,–,78.1,78.1,19.5,19.5,39.1,19.5,19.5,–,39.1,78.1,39.1,156,9.77,19.5,"CCCCCCC/C=C/C(=O)O [Trans-2-decenoic acid, trans-2-decenoic acid]","MIC ([1]; 24 h, Table 3, 24 hour incubation, read-out: MIC(B)): 36.2 µg/mL; MIC ([1]; 24 h, Table 4, 24 hour incubation, read-out: MIC (B)): 36.2 µg/mL; MIC ([3]; Table 34, 7 days incubation, read-out: MIC (B)): 19.5 µg/mL; MIC [3, 20]: 19.5 µg/mL; MIC ([3]; Table 42, incubation 7 days, read-out: MIC (B)): 19.5 µg/mL"

# From patent US11839212B2, “Synergistic pesticidal compositions and methods for delivery of insecticidal active ingredients” (0903608 B.C. Ltd., priority 2018, dated 2023)
